According to patent publication CN1202821A, “用于从面颊释放药物的组合物和方法” (Theratech Inc, priority 1995, dated 1998):
Values joined by “and” are separate entries in the source; they are usually repeats but may differ in a detail not shown here. Equal entries are not always repeated. Each block holds one compound with its values, some of them ahead of it.

What was measured:
[1] = Double-blind, placebo-controlled crossover study of buccal GLP-1(7-36) amide bilayer tablet: blood glucose, plasma insulin, plasma glucagon; assay type: in vivo, human; conditions: 400 μg buccal bilayer tablet, healthy volunteers
[2] = buccal, dose 119 nmol
[3] = Buccal delivery of salmon calcitonin from bilayer tablets in dogs (Table 3); assay type: in vivo, dog; conditions: individual dogs, 2 tablets
[4] = Dog buccal mucosa model: insulin bilayer tablet, blood glucose; assay type: in vivo; conditions: mean of 4 dogs, 1 buccal tablet of 0.375 inch, 5 U/kg

Compound: CC[C@H](C)[C@H](NC(=O)[C@H](Cc1ccccc1)NC(=O)[C@H](CCC(=O)O)NC(=O)[C@H](CCCCN)NC(=O)[C@H](C)NC(=O)[C@H](C)NC(=O)[C@H](CCC(N)=O)NC(=O)CNC(=O)[C@H](CCC(=O)O)NC(=O)[C@H](CC(C)C)NC(=O)[C@H](Cc1ccc(O)cc1)NC(=O)[C@H](CO)NC(=O)[C@H](CO)NC(=O)[C@@H](NC(=O)[C@H](CC(=O)O)NC(=O)[C@H](CO)NC(=O)[C@@H](NC(=O)[C@H](Cc1ccccc1)NC(=O)[C@@H](NC(=O)CNC(=O)[C@H](CCC(=O)O)NC(=O)[C@H](C)NC(=O)[C@@H](N)Cc1c[nH]cn1)[C@@H](C)O)[C@@H](C)O)C(C)C)C(=O)N[C@@H](C)C(=O)N[C@@H](Cc1c[nH]c2ccccc12)C(=O)N[C@@H](CC(C)C)C(=O)N[C@H](C(=O)N[C@@H](CCCCN)C(=O)NCC(=O)N[C@@H](CCCNC(=N)N)C(N)=O)C(C)C [GLP-1(7-36)酰胺]
- hypoglycaemia [1]: 没有导致低血糖症
- 生物利用度 (bioavailability) ([2]; individual subjects 901-907, listed as GLP-1(η-36)酰胺): 8.04 % and 6.40 % and 10.01 %
- 生物利用度 (bioavailability), mean ([2]; mean (平均) of subjects): 7.08 %

- ng吸收 (ng absorbed) ([3]; 0.71 cm2): 6,535 ng and 23,379 ng
Compound: CC(C)C[C@H](NC(=O)[C@H](CCCCN)NC(=O)CNC(=O)[C@H](CC(C)C)NC(=O)[C@@H](NC(=O)[C@@H]1CSSC[C@H](N)C(=O)N[C@@H](CO)C(=O)N[C@@H](CC(N)=O)C(=O)N[C@@H](CC(C)C)C(=O)N[C@@H](CO)C(=O)N[C@@H]([C@@H](C)O)C(=O)N1)C(C)C)C(=O)N[C@@H](CO)C(=O)N[C@@H](CCC(N)=O)C(=O)N[C@@H](CCC(=O)O)C(=O)N[C@@H](CC(C)C)C(=O)N[C@@H](Cc1c[nH]cn1)C(=O)N[C@@H](CCCCN)C(=O)N[C@@H](CC(C)C)C(=O)N[C@@H](CCC(N)=O)C(=O)N[C@H](C(=O)N[C@@H](Cc1ccc(O)cc1)C(=O)N1CCC[C@H]1C(=O)N[C@@H](CCCNC(=N)N)C(=O)N[C@H](C(=O)N[C@@H](CC(N)=O)C(=O)N[C@H](C(=O)NCC(=O)N[C@@H](CO)C(=O)NCC(=O)N[C@H](C(=O)N1CCC[C@H]1C(N)=O)[C@@H](C)O)[C@@H](C)O)[C@@H](C)O)[C@@H](C)O [鲑鱼降钙素]
- ng吸收 (ng absorbed) ([3]; 1.27 cm2): 72,958 ng and 16,461 ng and 20,989 ng and 17,614 ng

Compound: 胰岛素: human insulin in the buccal bilayer tablet of Example 6
- control of blood glucose concentration by buccal delivery [4]: 有效的
